Common to all, as to type: cell-based
The target in assay [1] is T1, human TASK-1 (Homo sapiens (Human), UniProt O14649). The experiment in a line: Two-electrode voltage clamp analysis of human TASK-1 channel in Xenopus laevis oocytes. The following applies: human TASK-1 expressed in Xenopus laevis oocytes, room temperature. Here is the method:
(§1) B-1. In Vitro Electrophysiological Analysis of the Human TASK-1 and TASK-3 Channels Via Two-Electrode Voltage Clamp Technique in Xenopus laevis Oocytes
(§2) Xenopus laevis oocytes were selected as described elsewhere by way of illustration [Decher et al., FEBS Lett. 492, 84-89 (2001)]. Subsequently, the oocytes were injected with 0.5-5 ng of a cRNA solution coding for TASK-1 or TASK-3. For the electrophysiological analysis of the channel proteins expressed in the oocytes, the two-electrode voltage clamp technique [Stühmer, Methods Enzymol. 207, 319-339 (1992)] was used. The measurements were conducted as described [Decher et al., FEBS Lett. 492, 84-89 (2001)] at room temperature (21-22° C.) using a Turbo TEC 10CD amplifier (NPI), recorded at 2 kHz and filtered with 0.4 kHz. Substance administration was performed using a gravitation-driven perfusion system. Here, the oocyte is located in a measuring chamber and exposed to the solution stream of 10 ml/min. The level in the measuring chamber is monitored and regulated by sucking off the solution using a peristaltic pump.

The target in assay [2] is T1, human TASK-1. The assay can be described thus: Inhibition of recombinant TASK-1 in stably transfected CHO cells (voltage-sensitive dye, KCl depolarization). Particulars: depolarization by 40 mM potassium chloride. The essentials:
(§3)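 Stably transfected CHO cells loaded with a voltage-sensitive membrane-potential dye were depolarized with 40 mM KCl in the presence of compound. IC50 is the concentration blocking half of the KCl-induced depolarization.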

The target of assay [3] is T2, human TASK-3 (Homo sapiens (Human), UniProt Q9NPC2). The assay can be described thus: Two-electrode voltage clamp analysis of human TASK-3 channel in Xenopus laevis oocytes. The following applies: human TASK-3 expressed in Xenopus laevis oocytes, room temperature. Here is the method:
as §1, §2
(In general: In two-electrode clamp one electrode senses voltage and the other passes current.)

Assay [4] deals with T2, human TASK-3. The assay can be described thus: Inhibition of recombinant TASK-3 in stably transfected CHO cells (voltage-sensitive dye, KCl depolarization). Particulars: depolarization by 40 mM potassium chloride. The essentials:
as §3

The text below walks through data of patent US11098063B2, “Diazabicyclic substituted imidazopyrimidines and their use for the treatment of breathing disorders” (Bayer Aktiengesellschaft, priority 2017, dated 2021).

The term IC50 denotes the concentration at which inhibition is half-maximal.

T1 sequence (O14649 whole entry): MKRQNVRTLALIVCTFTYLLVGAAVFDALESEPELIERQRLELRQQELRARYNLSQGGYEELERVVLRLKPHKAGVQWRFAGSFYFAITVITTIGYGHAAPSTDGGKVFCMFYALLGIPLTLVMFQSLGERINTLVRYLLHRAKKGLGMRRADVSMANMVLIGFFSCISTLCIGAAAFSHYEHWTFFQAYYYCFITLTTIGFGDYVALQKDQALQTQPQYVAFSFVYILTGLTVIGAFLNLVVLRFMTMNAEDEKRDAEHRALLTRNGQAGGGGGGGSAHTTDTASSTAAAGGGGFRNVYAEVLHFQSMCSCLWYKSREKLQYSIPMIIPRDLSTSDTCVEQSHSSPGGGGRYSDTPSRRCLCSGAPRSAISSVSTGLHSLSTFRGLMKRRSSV
T2 sequence (Q9NPC2 whole entry): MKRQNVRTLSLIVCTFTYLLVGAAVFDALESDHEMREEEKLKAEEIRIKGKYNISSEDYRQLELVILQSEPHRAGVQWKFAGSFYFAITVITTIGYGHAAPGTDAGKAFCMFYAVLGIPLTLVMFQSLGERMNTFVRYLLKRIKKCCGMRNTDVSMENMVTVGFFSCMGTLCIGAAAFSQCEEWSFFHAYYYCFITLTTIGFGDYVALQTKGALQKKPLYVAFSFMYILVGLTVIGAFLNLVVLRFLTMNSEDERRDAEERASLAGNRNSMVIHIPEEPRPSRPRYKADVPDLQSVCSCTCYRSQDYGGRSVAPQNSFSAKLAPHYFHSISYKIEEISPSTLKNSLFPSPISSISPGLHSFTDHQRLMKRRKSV

For the molecule `COc1ccc(Cl)c(C(=O)N2CC3CCC2CN3Cc2c(-c3ccc(C(C)C)cc3)nc3ncccn23)n1` (single isomer, unassigned) [Example 26, (3-Chloro-6-methoxypyridin-2-yl)(5-{[2-(4-isopropylphenyl)imidazo[1,2-a]pyrimidin-3-yl]methyl}-2,5-diazabicyclo[2.2.2]oct-2-yl)methanone], the IC50 in assay [1] was 31.2 ± 5.8 nM; in assay [2] it was 1400 nM; in assay [3] it was 140 ± 34.6 nM; in assay [4], 16 nM.
For `CC(C)c1ccc(-c2nc3ncccn3c2CN2CC3COCC(C2)N3C(=O)c2cccc(OC(F)F)n2)cc1` [Example 19, [6-(Difluoromethoxy)pyridin-2-yl](7-{[2-(4-isopropylphenyl)imidazo[1,2-a]pyrimidin-3-yl]methyl}-3-oxa-7,9-diazabicyclo[3.3.1]non-9-yl)methanone], the IC50 is 239 ± 2.7 nM in assay [1], 22000 nM in assay [2], 774 ± 67.1 nM in assay [3] and 59 nM in assay [4].
On to `CC(C)c1ccc(-c2nc3ncccn3c2CN2CC3CCC2CN3C(=O)c2ncoc2C2CC2)cc1` (single isomer, unassigned) [Example 27, (5-Cyclopropyl-1,3-oxazol-4-yl)(5-{[2-(4-isopropylphenyl)imidazo[1,2-a]pyrimidin-3-yl]methyl}-2,5-diazabicyclo[2.2.2]oct-2-yl)methanone], for which the IC50 is 17.9 ± 2.2 nM in assay [1], 1200 nM in assay [2], 367 ± 67.6 nM in assay [3] and 10 nM in assay [4].
For `O=C(Nc1ccc(F)cc1F)N1C2CCC1CN(Cc1c(-c3ccc(Cl)cc3)nc3ncccn13)C2` [Example 85, 3-{[2-(4-Chlorophenyl)imidazo[1,2-a]pyrimidin-3-yl]methyl}-N-(2,4-difluorophenyl)-3,8-diazabicyclo[3.2.1]octane-8-carboxamide], the IC50 in assay [2] was determined as 30000 nM; in assay [4], 1000 nM.
In the same order, the values of `COc1cccc(C(=O)N2C3COCC2CN(Cc2c(-c4ccc(Cl)cc4)nc4ncccn24)C3)n1` [Example 13, (7-{[2-(4-Chlorophenyl)imidazo[1,2-a]pyrimidin-3-yl]methyl}-3-oxa-7,9-diazabicyclo[3.3.1]non-9-yl)(6-methoxypyridin-2-yl)methanone] are 1500 nM and 33 nM.
Consider `O=C(c1ncoc1C1CC1)N1C2CCC1CN(Cc1c(-c3ccc(Cl)cc3)nc3ncccn13)C2` [Example 53], for which the IC50 in assay [2] is 620 nM; in assay [4], 19 nM.
Consider `O=C(Nc1cccc(F)c1)N1C2CCC1CN(Cc1c(-c3ccc(Cl)cc3)nc3ncccn13)C2` [Example 104, 3-{[2-(4-chlorophenyl)imidazo[1,2-a]pyrimidin-3-yl]methyl}-N-(3-fluorophenyl)-3,8-diazabicyclo[3.2.1]octane-8-carboxamide], for which the IC50 in assay [2] worked out at 19000 nM; in assay [4], 460 nM.
`COc1ccc(F)c(C(=O)N2CC3CCC2CN3Cc2c(-c3ccc(Cl)cc3)nc3ncccn23)n1` (stereo not shown) [Example 41]: the IC50 in assay [1] amounted to 44.4 ± 4.4 nM; in assay [2] it was 1500 nM; in assay [3], 71.8 ± 15.5 nM; in assay [4] it was 100 nM.
On to `O=C(c1ccccc1F)N1C2CCC1CN(Cc1c(-c3ccc(C4CC4)cc3)nc3ncccn13)C2` [Example 133, (3-{[2-(4-cyclopropylphenyl)imidazo[1,2-a]pyrimidin-3-yl]methyl}-3,8-diazabicyclo[3.2.1]octan-8-yl)(2-fluorophenyl)methanone], for which the IC50 in assay [2] turned out to be 1600 nM; in assay [4], 180 nM.
On to `COc1ccc(F)c(C(=O)N2C3CCC2CN(Cc2c(-c4ccc(Cl)cc4)nc4ncccn24)C3)n1` [Example 22, (3-{[2-(4-Chlorophenyl)imidazo[1,2-a]pyrimidin-3-yl]methyl}-3,8-diazabicyclo[3.2.1]oct-8-yl)(3-fluoro-6-methoxypyridin-2-yl)methanone], for which the values for the half-inhibitory concentration (IC50) in assay [2] and in assay [4] were 340 nM and 5.2 nM, respectively.
As for `COc1cccc(C(=O)N2C3CCC2CN(Cc2c(-c4ccc(C(C)C)cc4)nc4ncccn24)C3)n1` [Example 63], the IC50 in assay [2] came out at 1700 nM; in assay [4] it was 15 nM.
In the same order, the values of `CN(C)C(=O)N1C2CCC1CN(Cc1c(-c3ccc(Cl)cc3)nc3ncccn13)C2` [Example 119, 3-{[2-(4-chlorophenyl)imidazo[1,2-a]pyrimidin-3-yl]methyl}-N,N-dimethyl-3,8-diazabicyclo[3.2.1]octane-8-carboxamide] are 5300 nM and 210 nM.
With `COc1nc(C(F)(F)F)c(C(=O)N2C3CCC2CN(Cc2c(-c4ccc(Cl)cc4)nc4ncccn24)C3)s1` [Example 57], the values for the concentration for half-maximal inhibition (IC50) in assay [2] and in assay [4] were 6400 nM and 57 nM, respectively.
As to `CC(C)N(C)C(=O)N1C2CCC1CN(Cc1c(-c3ccc(Cl)cc3)nc3ncccn13)C2` [Example 115, 3-{[2-(4-chlorophenyl)imidazo[1,2-a]pyrimidin-3-yl]methyl}-N-isopropyl-N-methyl-3,8-diazabicyclo[3.2.1]octane-8-carboxamide], the figures for the IC50 in assay [2] and in assay [4] were 7400 nM and 330 nM, respectively.
In the same order, the values of `CC(C)(C)OC(=O)N1C2CCC1CN(Cc1c(-c3ccc(Br)cc3)nc3ncccn13)C2` [Example 12] are 220 nM and 13 nM.
For the molecule `O=C(c1ccccc1F)N1C2CCC1CN(Cc1c(-c3ccc(Cl)cc3)nc3ncccn13)C2` [Example 32], the results for the IC50 in assay [2] and in assay [4] were 370 nM and 29 nM, respectively.
Consider `CC(C)c1ccc(-c2nc3ncccn3c2CN2CC3CCC(C2)N3C(=O)c2ccccc2F)cc1` [Example 64], for which the values for the IC50 in assay [2] and in assay [4] were 1100 nM and 8.4 nM, respectively.
For `O=C(c1ncoc1C1CC1)N1C2COCC1CN(Cc1c(-c3ccc(Cl)cc3)nc3ncccn13)C2` [Example 46], in that order: 7600 nM and 140 nM.
As for `CC(C)(C)OC(=O)N1C2COCC1CN(Cc1c(-c3ccc(Cl)cc3)nc3ncccn13)C2` [Example 1, tert-Butyl 7-{[2-(4-chlorophenyl)imidazo[1,2-a]pyrimidin-3-yl]methyl}-3-oxa-7,9-diazabicyclo[3.3.1]nonane-9-carboxylate], the results for the half-inhibitory concentration (IC50) in assay [2] and in assay [4] were 1700 nM and 400 nM, respectively.
As to `COc1cccc(C(=O)N2CC3CCC2CN3Cc2c(-c3ccc(C(C)C)cc3)nc3ncccn23)n1` (stereo not shown) [Example 74], the IC50 in assay [2] came out at 3400 nM; in assay [4], 61 nM.
As for `Cc1scnc1C(=O)N1C2CCC1CN(Cc1c(-c3ccc(Cl)cc3)nc3ncccn13)C2` [Example 59], the results for the IC50 in assay [2] and in assay [4] were 3000 nM and 39 nM, respectively.
On to `COc1cccc(CN(C)C(=O)N2C3CCC2CN(Cc2c(-c4ccc(Cl)cc4)nc4ncccn24)C3)c1` [Example 121, 3-{[2-(4-chlorophenyl)imidazo[1,2-a]pyrimidin-3-yl]methyl}-N-(3-methoxybenzyl)-N-methyl-3,8-diazabicyclo[3.2.1]octane-8-carboxamide], for which the IC50 is 12000 nM in assay [2] and 120 nM in assay [4].
`O=C(C1CCCC1)N1C2CCC1CN(Cc1c(-c3ccc(Br)cc3)nc3ncccn13)C2` [Example 84]: the results for the half-inhibitory concentration (IC50) in assay [2] and in assay [4] were 93 nM and 4.6 nM, respectively.
Regarding `CC(C)c1nc(C(=O)N2C3CCC2CN(Cc2c(-c4ccc(Cl)cc4)nc4ncccn24)C3)cs1` [Example 54], the IC50 was found to be 860 nM in assay [2] and 13 nM in assay [4].
Turning to `Cc1nc(C(=O)N2C3CCC2CN(Cc2c(-c4ccc(Cl)cc4)nc4ncccn24)C3)c(C)o1` [Example 56], the IC50 in assay [2] was 5600 nM; in assay [4] it was 54 nM.
